For 17 molecules, IC50 results are on record in patent US9676751B2, “2-amino-3-ester-pyridl orexin receptor antagonists” (MERCK SHARP & DOHME CORP., priority 2013, dated 2017).

One experiment addresses T1, human orexin-2 receptor (Homo sapiens, UniProt O43614).
T1 construct: expressed in transfected cells; host or cells: CHO cells
T1 sequence (O43614 1-444): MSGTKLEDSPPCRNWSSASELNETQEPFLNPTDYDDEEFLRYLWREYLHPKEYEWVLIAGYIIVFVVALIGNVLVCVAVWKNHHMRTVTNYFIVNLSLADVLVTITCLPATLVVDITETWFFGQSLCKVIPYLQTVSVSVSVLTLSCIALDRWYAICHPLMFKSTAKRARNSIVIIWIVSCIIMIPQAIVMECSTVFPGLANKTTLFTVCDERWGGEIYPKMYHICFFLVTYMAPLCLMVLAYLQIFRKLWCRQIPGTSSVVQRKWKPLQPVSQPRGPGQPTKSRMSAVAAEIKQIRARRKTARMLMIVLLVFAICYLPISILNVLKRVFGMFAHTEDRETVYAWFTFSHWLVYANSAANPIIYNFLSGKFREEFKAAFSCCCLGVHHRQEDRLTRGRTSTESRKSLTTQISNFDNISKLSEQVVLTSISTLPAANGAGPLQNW
Kind of experiment: FLIPR Ca2+ Flux Assay, CHO cells expressing the human orexin-2 receptor. Format: cell-based. The note with it: agonist 70 pM Ala-6,12 orexin-A, read-out: hOX2R FLIPR IC50. The procedure: The utility of the compounds in accordance with the present invention as orexin receptor OX1R and/or OX2R antagonists may be readily determined without undue experimentation by methodology well known in the art, including the “FLIPR Ca^2+ Flux Assay” (Okumura et al., Biochem. Biophys. Res. Comm. 280:976-981, 2001). In a typical experiment the OX1 and OX2 receptor antagonistic activity of the compounds of the present invention was determined in accordance with the following experimental method. For intracellular calcium measurements, Chinese hamster ovary (CHO) cells expressing the rat orexin-1 receptor or the human orexin-2 receptor, are grown in Iscove's modified DMEM containing 2 mM L-glutamine, […], 1% hypoxanthine-thymidine supplement, 100 U/ml penicillin, 100 μg/ml streptomycin and 10% heat-inactivated fetal calf serum (FCS). The cells are seeded at 20,000 cells/well into Becton-Dickinson black 384-well clear bottom sterile plates coated with poly-D-lysine. All reagents were from GIBCO-Invitrogen Corp. The seeded plates are incubated overnight at 37° C. and 5% CO2. Ala-6,12 human orexin-A as the agonist is prepared as a 1 mM stock solution in 1% bovine serum albumin (BSA) and diluted in assay buffer (HBSS containing 20 mM HEPES, 0.1% BSA and 2.5 mM probenecid, pH7.4) for use in the assay at a final concentration of 70 pM. Test compounds are prepared as 10 mM stock solution in DMSO, then diluted in 384-well plates, first in DMSO, then assay buffer. On the day of the assay, cells are washed 3 times with 100 μl assay buffer and then incubated for 60 min (37° C., 5% CO2) in 60 μl assay buffer containing 1 μM Fluo-4AM ester, 0.02% pluronic acid, and 1% BSA. The dye loading solution is then aspirated and cells are washed 3 times with 100 μl assay buffer. 30 μl of that same buffer is left in each well. Within the Fluorescent Imaging Plate Reader (FLIPR, Molecular Devices), test compounds are added to the plate in a volume of 25 μl, incubated for 5 min and finally 25 μl of agonist is added. Fluorescence is measured for each well at 1 second intervals for 5 minutes and the height of each fluorescence peak is compared to the height of the fluorescence peak induced by 70 pM Ala-6,12 orexin-A with buffer in place of antagonist. For each antagonist, IC50 value (the concentration of compound needed to inhibit 50% of the agonist response) is determined. Alternatively, compound potency can be assessed by a radioligand binding assay (described in Bergman et. al. Bioorg. Med. Chem. Lett. 2008, 18, 1425-1430) in which the inhibition constant (Ki) is determined in membranes prepared from CHO cells expressing either the OX1 or OX2 receptor. The intrinsic orexin receptor antagonist activity of a compound which may be used in the present invention may be determined by these assays.

Another experiment deals with T2, hOX1R (Homo sapiens, UniProt O43613).
T2 construct: expressed in transfected cells; host or cells: CHO cells
T2 sequence (O43613 1-425): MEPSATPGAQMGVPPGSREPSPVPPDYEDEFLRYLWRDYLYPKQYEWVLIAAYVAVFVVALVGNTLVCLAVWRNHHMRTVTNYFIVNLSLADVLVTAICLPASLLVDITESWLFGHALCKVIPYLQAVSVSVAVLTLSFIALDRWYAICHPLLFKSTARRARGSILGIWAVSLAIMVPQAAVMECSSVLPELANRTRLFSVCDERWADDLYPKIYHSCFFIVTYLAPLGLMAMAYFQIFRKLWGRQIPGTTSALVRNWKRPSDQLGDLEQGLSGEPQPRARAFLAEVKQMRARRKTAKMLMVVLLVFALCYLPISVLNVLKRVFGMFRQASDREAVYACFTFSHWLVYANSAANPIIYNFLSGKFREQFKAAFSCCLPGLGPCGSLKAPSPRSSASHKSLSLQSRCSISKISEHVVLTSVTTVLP
The experiment in a line: FLIPR Ca2+ Flux Assay, CHO cells expressing the orexin-1 receptor. The following applies: agonist 70 pM Ala-6,12 orexin-A. The experiment is classed as cell-based.

Turning to `COC(=O)c1cccnc1N[C@@H]1CC[C@@H](C)N(C(=O)c2ccccc2-n2nccn2)C1` [Example 1, Methyl 2-{[(3R,6R)-6-methyl-1-{[2-(2H-1,2,3-triazol-2-yl)phenyl]carbonyl}piperidin-3-yl]amino}pyridine-3-carboxylate], the IC50 on human orexin-2 receptor came out at 38 nM.

In the case of `COC(=O)c1c(OC)ccnc1N[C@@H]1CC[C@@H](C)N(C(=O)c2ccccc2-n2nccn2)C1` [Example 2, Methyl 4-methoxy-2-{[(3R,6R)-6-methyl-1-{[2-(2H-1,2,3-triazol-2-yl)phenyl]carbonyl}-piperidin-3-yl]amino}pyridine-3-carboxylate], the IC50 turned out to be 25 nM at human orexin-2 receptor and 53 nM on hOX1R.

As for `COC(=O)c1c(OC)ccnc1N[C@@H]1CC[C@@H](C)N(C(=O)c2ccccc2-n2ncnn2)C1` [Example 3, Methyl 4-methoxy-2-{[(3R,6R)-6-methyl-1-{[2-(2H-tetrazol-2-yl)phenyl]carbonyl}piperidin-3-yl]amino}pyridine-3-carboxylate], the half-maximal inhibitory concentration (IC50) at human orexin-2 receptor is 34 nM; at hOX1R it was 237 nM.

Take `COC(=O)c1c(OC)ccnc1N[C@@H]1CC[C@@H](C)N(C(=O)c2cccc(F)c2-n2nccn2)C1` [Example 4, methyl 2-{[(3R,6R)-1-{[3-fluoro-2-(2H-1,2,3-triazol-2-yl)phenyl]carbonyl}-6-methylpiperidin-3-yl]amino}-4-methoxypyridine-3-carboxylate]: the IC50 at human orexin-2 receptor turned out to be 45 nM; at hOX1R, 362 nM.

Turning to `COC(=O)c1c(OC)ccnc1N[C@@H]1CC[C@@H](C)N(C(=O)c2cc(F)ccc2-n2nccn2)C1` [Example 5, methyl 2-{[(3R,6R)-1-{[5-fluoro-2-(2H-1,2,3-triazol-2-yl)phenyl]carbonyl}-6-methylpiperidin-3-yl]amino}-4-methoxypyridine-3-carboxylate], the values for the IC50 at human orexin-2 receptor and on hOX1R were 45 nM and 207 nM, respectively.

Take `COC(=O)c1c(OC)ccnc1N[C@@H]1CC[C@@H](C)N(C(=O)c2c(F)cccc2-n2nccn2)C1` [Example 6, methyl 2-{[(3R,6R)-1-{[2-fluoro-6-(2H-1,2,3-triazol-2-yl)phenyl]carbonyl}-6-methylpiperidin-3-yl]amino}-4-methoxypyridine-3-carboxylate]: the IC50 on human orexin-2 receptor worked out at 54 nM; at hOX1R, 154 nM.

Take `COC(=O)c1c(OC)ccnc1N[C@@H]1CC[C@@H](C)N(C(=O)c2ccccc2-c2nc(C)no2)C1` [Example 7, methyl 4-methoxy-2-{[(3R,6R)-6-methyl-1-{[2-(3-methyl-1,2,4-oxadiazol-5-yl)phenyl]carbonyl}piperidin-3-yl]amino}pyridine-3-carboxylate]: the IC50 at human orexin-2 receptor was determined as 74 nM; at hOX1R it was 309 nM.

In the case of `COC(=O)c1c(OC)ccnc1N[C@@H]1CC[C@@H](C)N(C(=O)c2c(F)cccc2-c2nc(C)no2)C1` [Example 8, methyl 2-{[(3R,6R)-1-{[2-fluoro-6-(3-methyl-1,2,4-oxadiazol-5-yl)phenyl]carbonyl}-6-methylpiperidin-3-yl]amino}-4-methoxypyridine-3-carboxylate], the IC50 is 94 nM at human orexin-2 receptor and 288 nM at hOX1R.

Turning to `COC(=O)c1c(OC)ccnc1N[C@@H]1CC[C@@H](C)N(C(=O)c2cccc(F)c2-c2noc(C)n2)C1` [Example 9, methyl 2-{[(3R,6R)-1-{[3-fluoro-2-(5-methyl-1,2,4-oxadiazol-3-yl)phenyl]carbonyl}-6-methylpiperidin-3-yl]amino}-4-methoxypyridine-3-carboxylate], the IC50 was 57 nM on human orexin-2 receptor and 236 nM on hOX1R.

Take `COC(=O)c1c(OC)ccnc1N[C@@H]1CC[C@@H](C)N(C(=O)c2c(F)cccc2-c2noc(C)n2)C1` [Example 10, methyl 2-{[(3R,6R)-1-{[2-fluoro-6-(5-methyl-1,2,4-oxadiazol-3-yl)phenyl]carbonyl}-6-methylpiperidin-3-yl]amino}-4-methoxypyridine-3-carboxylate]: the IC50 at human orexin-2 receptor came to 88 nM; on hOX1R it was 332 nM.

Regarding `COC(=O)c1c(OC)ccnc1N[C@@H]1CC[C@@H](C)N(C(=O)c2ccccc2-c2ncccn2)C1` [Example 11, Methyl 4-methoxy-2-({(3R,6R)-6-methyl-1-[(2-pyrimidin-2-ylphenyl)carbonyl]piperidin-3-yl}amino)pyridine-3-carboxylate], the IC50 at human orexin-2 receptor stood at 41 nM; at hOX1R it was 80 nM.

For `COC(=O)c1c(OC)ccnc1N[C@@H]1CC[C@@H](C)N(C(=O)c2cccc(F)c2-c2ncccn2)C1` [Example 12, methyl 2-({(3R,6R)-1-[(3-fluoro-2-pyrimidin-2-ylphenyl)carbonyl]-6-methylpiperidin-3-yl}amino)-4-methoxypyridine-3-carboxylate], the results for the IC50 on human orexin-2 receptor and at hOX1R were 53 nM and 196 nM, respectively.

As for `COC(=O)c1c(OC)ccnc1N[C@@H]1CC[C@@H](C)N(C(=O)c2ccc(F)cc2-c2ncccn2)C1` [Example 13, methyl 2-({(3R,6R)-1-[(4-fluoro-2-pyrimidin-2-ylphenyl)carbonyl]-6-methylpiperidin-3-yl}amino)-4-methoxypyridine-3-carboxylate], the IC50 on human orexin-2 receptor was 44 nM; on hOX1R it was 138 nM.

With `COC(=O)c1c(OC)ccnc1N[C@@H]1CC[C@@H](C)N(C(=O)c2cc(F)ccc2-c2ncccn2)C1` [Example 14, methyl 2-({(3R,6R)-1-[(5-fluoro-2-pyrimidin-2-ylphenyl)carbonyl]-6-methylpiperidin-3-yl}amino)-4-methoxypyridine-3-carboxylate], the values for the IC50 at human orexin-2 receptor and on hOX1R were 51 nM and 83 nM, respectively.

As for `COC(=O)c1c(OC)ccnc1N[C@@H]1CC[C@@H](C)N(C(=O)c2c(F)cccc2-c2ncccn2)C1` [Example 15, methyl 2-({(3R,6R)-1-[(2-fluoro-6-pyrimidin-2-ylphenyl)carbonyl]-6-methylpiperidin-3-yl}amino)-4-methoxypyridine-3-carboxylate], the IC50 at human orexin-2 receptor is 38 nM; at hOX1R, 66 nM.

In the case of `COC(=O)c1c(OC)ccnc1N[C@@H]1CC[C@@H](C)N(C(=O)c2sccc2-c2ncccn2)C1` [Example 16, methyl 4-methoxy-2-({(3R,6R)-6-methyl-1-[(3-pyrimidin-2-ylthiophen-2-yl)carbonyl]piperidin-3-yl}amino)pyridine-3-carboxylate], the IC50 at human orexin-2 receptor was determined as 40 nM; at hOX1R, 402 nM.

As to `COC(=O)c1c(OC)ccnc1N[C@@H]1CC[C@@H](C)N(C(=O)c2ccsc2-c2ncccn2)C1` [Example 17, methyl 4-methoxy-2-({(3R,6R)-6-methyl-1-[(2-pyrimidin-2-ylthiophen-3-yl)carbonyl]piperidin-3-yl}amino)pyridine-3-carboxylate], the IC50 at human orexin-2 receptor is 58 nM; on hOX1R, 266 nM.
